Source: patent publication US9981940B2, “Aryl sulfide derivatives and aryl sulfoxide derivatives as acaricides and insecticides” (BAYER CROPSCIENCE AKTIENGESELLSCHAFT, priority 2013, dated 2018)

Tested on: Tetranychus urticae
Assay: Tetranychus urticae spray test, OP-resistant (TETRUR)
Format: in vivo
Settings: application rate of 500 g/ha; after 6 days
Protocol: Tetranychus urticae—Spray Test, OP-Resistant (TETRUR)
• Solvent: 78.0 parts by weight of acetone • 1.5 parts by weight of dimethylformamide • Emulsifier: 0.5 part by weight of alkylaryl polyglycol ether
To produce an appropriate active ingredient formulation, 1 part by weight of active ingredient is mixed with the specified amounts of solvent and emulsifier, and the concentrate is diluted to the desired concentration with emulsifier-containing water.
Discs of bean leaves (Phaseolus vulgaris) infested by all stages of the greenhouse red spider mite (Tetranychus urticae) are sprayed with an active ingredient formulation of the desired concentration.
After 6 days, the efficacy in % is determined 100% means that all the spider mites have been killed; 0% means that none of the spider mites have been killed.

| SMILES | efficacy [%] |
| --- | --- |
| CCCCc1nn(-c2cc([S+]([O-])CC(F)(F)F)c(C)cc2F)c(=O)n1C1CC1 (racemic) [Example 72] | 90 |
| CCOCc1nn(-c2cc([S+]([O-])CC(F)(F)F)c(C)cc2F)c(=O)n1C1CC1 (racemic) [Example 74] | 100 |
| COCCc1nn(-c2cc([S+]([O-])CC(F)(F)F)c(C)cc2F)c(=O)n1C1CC1 (racemic) [Example 76] | 100 |
| CCc1nn(-c2cc([S+]([O-])CC(F)(F)F)c(C)cc2F)c(=O)n1C1CC1 (racemic) [Example 78] | 100 |
| CCCc1nn(-c2cc([S+]([O-])CC(F)(F)F)c(C)cc2F)c(=O)n1C1CC1 (racemic) [Example 80] | 100 |
| CC=Cc1nn(-c2cc([S+]([O-])CC(F)(F)F)c(C)cc2F)c(=O)n1C1CC1 (racemic) [Example 82] | 100 |
| Cc1cc(F)c(-n2nc(CC(C)C)n(C3CC3)c2=O)cc1[S+]([O-])CC(F)(F)F (racemic) [Example 84] | 100 |
| CCC(C)c1nn(-c2cc([S+]([O-])CC(F)(F)F)c(C)cc2F)c(=O)n1C1CC1 (racemic) [Example 86] | 100 |
| Cc1cc(F)c(-n2nc(C3CCC3)n(C3CC3)c2=O)cc1[S+]([O-])CC(F)(F)F (racemic) [Example 88] | 100 |
| Cc1cc(F)c(-n2nc(N(C)C)n(C)c2=O)cc1[S+]([O-])CC(F)(F)F (racemic) [Example 191] | 90 |
| Cc1cc(F)c(-n2nc(N(C)C)n(C3CC3)c2=O)cc1[S+]([O-])CC(F)(F)F (racemic) [Example 194] | 100 |
| Cc1cc(F)c(-n2nc(SCC3CC3)n(C)c2=O)cc1[S+]([O-])CC(F)(F)F (racemic) [Example 280] | 100 |
| Cc1cc(F)c(-n2nc(SCC(F)(F)F)n(C)c2=O)cc1[S+]([O-])CC(F)(F)F (racemic) [Example 282] | 100 |
| Cc1cc(F)c(-n2nc(SC(F)(F)F)n(C)c2=O)cc1[S+]([O-])CC(F)(F)F (racemic) [Example 284] | 100 |
| C=CCn1c(SC(C)C)nn(-c2cc([S+]([O-])CC(F)(F)F)c(C)cc2F)c1=O (racemic) [Example 285] | 100 |

Tested on: not listed separately
Assay: log P by HPLC (OECD Guideline 117), method [a] acidic range
Format: physicochemical
Settings: HPLC, method [a] acidic range
Protocol: (§1) The log P values were determined analogously to OECD Guideline 117 (EC Directive 92/69/EEC) by HPLC (high-performance liquid chromatography) using reversed-phase columns (C 18), by the following methods:
[a] The LC-MS determination in the acidic range is effected at pH 2.7 with 0.1% aqueous formic acid and acetonitrile (contains 0.1% formic acid) as eluents; linear gradient from 10% acetonitrile to 95% acetonitrile.

| SMILES | logP[a] |
| --- | --- |
| CCCCc1nn(-c2cc([S+]([O-])CC(F)(F)F)c(C)cc2F)c(=O)n1C1CC1 (racemic) [Example 72] | 2.94 |
| CCOCc1nn(-c2cc([S+]([O-])CC(F)(F)F)c(C)cc2F)c(=O)n1C1CC1 (racemic) [Example 74] | 2.31 |
| COCCc1nn(-c2cc([S+]([O-])CC(F)(F)F)c(C)cc2F)c(=O)n1C1CC1 (racemic) [Example 76] | 2.03 |
| CCc1nn(-c2cc([S+]([O-])CC(F)(F)F)c(C)cc2F)c(=O)n1C1CC1 (racemic) [Example 78] | 2.20 |
| CCCc1nn(-c2cc([S+]([O-])CC(F)(F)F)c(C)cc2F)c(=O)n1C1CC1 (racemic) [Example 80] | 2.56 |
| CC=Cc1nn(-c2cc([S+]([O-])CC(F)(F)F)c(C)cc2F)c(=O)n1C1CC1 (racemic) [Example 82] | 2.48 |
| Cc1cc(F)c(-n2nc(CC(C)C)n(C3CC3)c2=O)cc1[S+]([O-])CC(F)(F)F (racemic) [Example 84] | 2.86 |
| CCC(C)c1nn(-c2cc([S+]([O-])CC(F)(F)F)c(C)cc2F)c(=O)n1C1CC1 (racemic) [Example 86] | 2.86 |
| Cc1cc(F)c(-n2nc(C3CCC3)n(C3CC3)c2=O)cc1[S+]([O-])CC(F)(F)F (racemic) [Example 88] | 2.72 |
| Cc1cc(F)c(-n2nc(N(C)C)n(C)c2=O)cc1[S+]([O-])CC(F)(F)F (racemic) [Example 191] | 1.86 |
| Cc1cc(F)c(-n2nc(N(C)C)n(C3CC3)c2=O)cc1[S+]([O-])CC(F)(F)F (racemic) [Example 194] | 2.17 |
| Cc1cc(F)c(-n2nc(SCC3CC3)n(C)c2=O)cc1[S+]([O-])CC(F)(F)F (racemic) [Example 280] | 2.82 |
| Cc1cc(F)c(-n2nc(SCC(F)(F)F)n(C)c2=O)cc1[S+]([O-])CC(F)(F)F (racemic) [Example 282] | 2.57 |
| Cc1cc(F)c(-n2nc(SC(F)(F)F)n(C)c2=O)cc1[S+]([O-])CC(F)(F)F (racemic) [Example 284] | 2.65 |
| C=CCn1c(SC(C)C)nn(-c2cc([S+]([O-])CC(F)(F)F)c(C)cc2F)c1=O (racemic) [Example 285] | 3.24 |

Tested on: not listed separately
Assay: log P by HPLC (OECD Guideline 117), method [b] neutral range
Format: physicochemical
Settings: HPLC, method [b] neutral range
Protocol: as §1
[b] The LC-MS determination in the neutral range is effected at pH 7.8 with 0.001 molar aqueous ammonium hydrogencarbonate solution and acetonitrile as eluents; linear gradient from 10% acetonitrile to 95% acetonitrile.

| SMILES | logP[b] |
| --- | --- |
| CCCCc1nn(-c2cc([S+]([O-])CC(F)(F)F)c(C)cc2F)c(=O)n1C1CC1 (racemic) [Example 72] | 2.88 |
| CCOCc1nn(-c2cc([S+]([O-])CC(F)(F)F)c(C)cc2F)c(=O)n1C1CC1 (racemic) [Example 74] | 2.25 |
| COCCc1nn(-c2cc([S+]([O-])CC(F)(F)F)c(C)cc2F)c(=O)n1C1CC1 (racemic) [Example 76] | 1.97 |
| CCc1nn(-c2cc([S+]([O-])CC(F)(F)F)c(C)cc2F)c(=O)n1C1CC1 (racemic) [Example 78] | 2.15 |
| CCCc1nn(-c2cc([S+]([O-])CC(F)(F)F)c(C)cc2F)c(=O)n1C1CC1 (racemic) [Example 80] | 2.49 |
| CC=Cc1nn(-c2cc([S+]([O-])CC(F)(F)F)c(C)cc2F)c(=O)n1C1CC1 (racemic) [Example 82] | 2.42 |
| Cc1cc(F)c(-n2nc(CC(C)C)n(C3CC3)c2=O)cc1[S+]([O-])CC(F)(F)F (racemic) [Example 84] | 2.80 |
| CCC(C)c1nn(-c2cc([S+]([O-])CC(F)(F)F)c(C)cc2F)c(=O)n1C1CC1 (racemic) [Example 86] | 2.79 |
| Cc1cc(F)c(-n2nc(C3CCC3)n(C3CC3)c2=O)cc1[S+]([O-])CC(F)(F)F (racemic) [Example 88] | 2.66 |
| Cc1cc(F)c(-n2nc(N(C)C)n(C)c2=O)cc1[S+]([O-])CC(F)(F)F (racemic) [Example 191] | 1.84 |
| Cc1cc(F)c(-n2nc(N(C)C)n(C3CC3)c2=O)cc1[S+]([O-])CC(F)(F)F (racemic) [Example 194] | 2.12 |
| Cc1cc(F)c(-n2nc(SCC3CC3)n(C)c2=O)cc1[S+]([O-])CC(F)(F)F (racemic) [Example 280] | 2.75 |
| Cc1cc(F)c(-n2nc(SCC(F)(F)F)n(C)c2=O)cc1[S+]([O-])CC(F)(F)F (racemic) [Example 282] | 2.52 |
| Cc1cc(F)c(-n2nc(SC(F)(F)F)n(C)c2=O)cc1[S+]([O-])CC(F)(F)F (racemic) [Example 284] | 2.60 |
| C=CCn1c(SC(C)C)nn(-c2cc([S+]([O-])CC(F)(F)F)c(C)cc2F)c1=O (racemic) [Example 285] | 3.17 |
